{
  "source": "paper PMC6952392",
  "about": "“A combined computational and experimental strategy identifies mutations conferring resistance to drugs targeting the BCR-ABL fusion protein” (Communications Biology, 2020)",
  "origin": "cited, not measured here",
  "key": {"[1]": {"details": "safety window"}},
  "note": "Read-outs that look alike come from different tables or passages of the source.",
  "data": [
    {"smiles": "COc1cc(Nc2c(C#N)cnc3cc(OCCCN4CCN(C)CC4)c(OC)cc23)c(Cl)cc1Cl", "note": "[bosutinib]", "values": [
      {"measurement": "in vitro inhibitory activity", "setting": "BCR-ABL", "result": "sub-nanomolar range"}
    ]},
    {"smiles": "Cc1cn(-c2cc(NC(=O)c3ccc(C)c(Nc4nccc(-c5cccnc5)n4)c3)cc(C(F)(F)F)c2)cn1", "note": "[nilotinib]", "values": [
      {"measurement": "effective safe plasma concentration", "setting": "[1]", "result": "< 1500", "unit": "ng/mL"}
    ]},
    {"smiles": "Cc1ccc(C(=O)Nc2ccc(CN3CCN(C)CC3)c(C(F)(F)F)c2)cc1C#Cc1cnc2cccnn12", "note": "[ponatinib]", "values": [
      {"measurement": "in vitro inhibitory activity", "setting": "BCR-ABL; general statement, no reference given", "result": "sub-nanomolar range"}
    ]}
  ]
}
